Patent publication US20250319067A1, “Improved Pharmacokinetics of Tryptamine Prodrugs” (Reunion Neuroscience, Inc., priority 2023, published 2025)

Tested on: healthy females
Experiment: Phase 1 FIH single ascending dose study: safety and tolerability (AEs)
Format: in vivo, human
Description: The study was a double-blind, randomized, placebo-controlled Phase 1 single ascending dose study in up to 6 cohorts in healthy females. Eligibility was assessed during a screening period of up to 28 days prior to enrollment. For the treatment period, subjects were admitted to the clinical research unit (CRU) one day prior to the dosing (Day −1). On Day 1, all subjects will received the assigned SC dose of RE104 HCl or placebo in a fed state (after domiciling overnight and consuming a planned evening meal on Day −1 and morning meal on Day 1 while at the CRU). Subjects were allowed to select snacks from a planned menu from 4 hours following dosing. Subjects were discharged from the clinic on Day 2 (−24 hours post-dose) after all required study procedures were completed and if deemed medically fit. Subjects returned to the clinic on Day 10 (±2 days) for a follow up visit.
Six (6) cohorts were enrolled in the study. Six (6) single doses were tested in 6 cohorts (Cohort 1 to Cohort 6) of 8 healthy female subjects (6 active and 2 placebo), as indicated in FIG. 1 and Table 3.
The starting dose was 5.5 mg RE104 HCl. Sentinels were used in all cohorts. Within each cohort, 2 subjects were treated first: 1 subject received RE104 HCl and 1 subject received placebo.
The study was monitored by a safety review committee (SRC). […] Safety, tolerability, and available PK data were assessed by the SRC between each cohort before ascending to the next dose level (Table 3). After each cohort dosing was complete, the SRC met to discuss dose escalation. Escalation to the next higher dose level occurred only after evaluation of the safety and tolerability data up to and including at least 24 hours post-dose of all evaluable subjects in the previous dose cohort. Available PK results were requested for determination of dose escalation, as deemed necessary.
Dosing took place at a time point agreed to with the investigational pharmacy and acceptable to the investigator. RE104 HCl or placebo were administered as a SC injection in the upper arm. Subjects received RE104 HCl or placebo in a fed state. The time of administration of RE104 HCl or placebo was be recorded in the eCRF. The regimen used is outlined in Table 3.
Within each cohort, 2 sentinel subjects were treated first: 1 subject received RE104 HCl and 1 subject received placebo. […] All drug administration was be done under direct medical supervision. Study subjects were overseen during the potentially psychoactive study drug period by professionals trained to monitor psychedelic experiences.

With `CC(C)N(CCc1c[nH]c2cccc(OC(=O)CCCC(=O)O)c12)C(C)C` [RE104] the “AE Abdominal pain” value (RE104 5.5 mg, n = 6) was 0 n (%), the “AE Agitation” value (RE104 5.5 mg, n = 6) was 0 n (%) and the “AE Diarrhea” value (RE104 5.5 mg, n = 6) was 0 n (%). The “AE Distress” value (RE104 5.5 mg, n = 6) was 0 n (%), the “AE Fatigue” value (RE104 5.5 mg, n = 6) was 0 n (%) and the “AE Feeling hot” value (RE104 5.5 mg, n = 6) was 0 n (%). For the same compound, the “AE Headache” value (RE104 5.5 mg, n = 6) was 0 n (%), the “AE Heart rate increased” value (RE104 5.5 mg, n = 6) was 0 n (%) and the “AE Hyperhidrosis” value (RE104 5.5 mg, n = 6) was 0 n (%). The “AE Muscle twitching” value (RE104 5.5 mg, n = 6) was 0 n (%), the “AE Musculoskeletal injury” value (RE104 5.5 mg, n = 6) was 0 n (%) and the “AE Nausea” value (RE104 5.5 mg, n = 6) was 1 (16.7) n (%). The “AE Restlessness” value (RE104 5.5 mg, n = 6) was 0 n (%), the “AE Sinus tachycardia” value (RE104 5.5 mg, n = 6) was 0 n (%) and the “AE Thirst” value (RE104 5.5 mg, n = 6) was 0 n (%). The “AE Tremor” value (RE104 5.5 mg, n = 6) was 0 n (%), the “AE Vomiting” value (RE104 5.5 mg, n = 6) was 1 (16.7) n (%) and the “AEs leading to” value (RE104 5.5 mg, n = 6) was 0 n (%). The “Any AE” value (RE104 5.5 mg, n = 6) was 2 (33.3) n (%), the “Any SAE” value (RE104 5.5 mg, n = 6) was 0 n (%) and the “Severe AEs” value (RE104 5.5 mg, n = 6) was 0 n (%). The “AE Abdominal pain” value (RE104 11 mg, n = 6) was 0 n (%), the “AE Agitation” value (RE104 11 mg, n = 6) was 0 n (%) and the “AE Diarrhea” value (RE104 11 mg, n = 6) was 0 n (%). The “AE Distress” value (RE104 11 mg, n = 6) was 0 n (%), the “AE Fatigue” value (RE104 11 mg, n = 6) was 0 n (%) and the “AE Feeling hot” value (RE104 11 mg, n = 6) was 0 n (%). The “AE Headache” value (RE104 11 mg, n = 6) was 1 (16.7) n (%), the “AE Heart rate increased” value (RE104 11 mg, n = 6) was 0 n (%) and the “AE Hyperhidrosis” value (RE104 11 mg, n = 6) was 0 n (%). The “AE Muscle twitching” value (RE104 11 mg, n = 6) was 0 n (%), the “AE Musculoskeletal injury” value (RE104 11 mg, n = 6) was 0 n (%) and the “AE Nausea” value (RE104 11 mg, n = 6) was 2 (33.3) n (%). For the same compound, the “AE Restlessness” value (RE104 11 mg, n = 6) was 0 n (%), the “AE Sinus tachycardia” value (RE104 11 mg, n = 6) was 0 n (%) and the “AE Thirst” value (RE104 11 mg, n = 6) was 0 n (%). For the same compound, the “AE Tremor” value (RE104 11 mg, n = 6) was 0 n (%), the “AE Vomiting” value (RE104 11 mg, n = 6) was 0 n (%) and the “AEs leading to” value (RE104 11 mg, n = 6) was 0 n (%). For the same compound, the “Any AE” value (RE104 11 mg, n = 6) was 2 (33.3) n (%), the “Any SAE” value (RE104 11 mg, n = 6) was 0 n (%) and the “Severe AEs” value (RE104 11 mg, n = 6) was 0 n (%). The “AE Abdominal pain” value (RE104 22 mg, n = 6) was 0 n (%), the “AE Agitation” value (RE104 22 mg, n = 6) was 0 n (%) and the “AE Diarrhea” value (RE104 22 mg, n = 6) was 1 (16.7) n (%). The “AE Distress” value (RE104 22 mg, n = 6) was 0 n (%), the “AE Fatigue” value (RE104 22 mg, n = 6) was 0 n (%) and the “AE Feeling hot” value (RE104 22 mg, n = 6) was 1 (16.7) n (%). The “AE Headache” value (RE104 22 mg, n = 6) was 0 n (%), the “AE Heart rate increased” value (RE104 22 mg, n = 6) was 1 (16.7) n (%) and the “AE Hyperhidrosis” value (RE104 22 mg, n = 6) was 1 (16.7) n (%). For the same compound, the “AE Muscle twitching” value (RE104 22 mg, n = 6) was 0 n (%), the “AE Musculoskeletal injury” value (RE104 22 mg, n = 6) was 0 n (%) and the “AE Nausea” value (RE104 22 mg, n = 6) was 0 n (%). The “AE Restlessness” value (RE104 22 mg, n = 6) was 0 n (%), the “AE Sinus tachycardia” value (RE104 22 mg, n = 6) was 0 n (%) and the “AE Thirst” value (RE104 22 mg, n = 6) was 0 n (%). The “AE Tremor” value (RE104 22 mg, n = 6) was 0 n (%), the “AE Vomiting” value (RE104 22 mg, n = 6) was 0 n (%) and the “AEs leading to” value (RE104 22 mg, n = 6) was 0 n (%). For the same compound, the “Any AE” value (RE104 22 mg, n = 6) was 2 (33.3) n (%), the “Any SAE” value (RE104 22 mg, n = 6) was 0 n (%) and the “Severe AEs” value (RE104 22 mg, n = 6) was 0 n (%). For the same compound, the “AE Abdominal pain” value (RE104 33 mg, n = 9) was 2 (22.2) n (%), the “AE Agitation” value (RE104 33 mg, n = 9) was 0 n (%) and the “AE Diarrhea” value (RE104 33 mg, n = 9) was 0 n (%). The “AE Distress” value (RE104 33 mg, n = 9) was 0 n (%), the “AE Fatigue” value (RE104 33 mg, n = 9) was 2 (22.2) n (%) and the “AE Feeling hot” value (RE104 33 mg, n = 9) was 0 n (%). For the same compound, the “AE Headache” value (RE104 33 mg, n = 9) was 1 (11.1) n (%), the “AE Heart rate increased” value (RE104 33 mg, n = 9) was 0 n (%) and the “AE Hyperhidrosis” value (RE104 33 mg, n = 9) was 0 n (%). For the same compound, the “AE Muscle twitching” value (RE104 33 mg, n = 9) was 3 (33.3) n (%), the “AE Musculoskeletal injury” value (RE104 33 mg, n = 9) was 1 (11.1) n (%) and the “AE Nausea” value (RE104 33 mg, n = 9) was 3 (33.3) n (%). The “AE Restlessness” value (RE104 33 mg, n = 9) was 3 (33.3) n (%), the “AE Sinus tachycardia” value (RE104 33 mg, n = 9) was 4 (44.4) n (%) and the “AE Thirst” value (RE104 33 mg, n = 9) was 0 n (%). The “AE Tremor” value (RE104 33 mg, n = 9) was 1 (11.1) n (%), the “AE Vomiting” value (RE104 33 mg, n = 9) was 0 n (%) and the “AEs leading to” value (RE104 33 mg, n = 9) was 0 n (%). For the same compound, the “Any AE” value (RE104 33 mg, n = 9) was 8 (88.9) n (%), the “Any SAE” value (RE104 33 mg, n = 9) was 0 n (%) and the “Severe AEs” value (RE104 33 mg, n = 9) was 0 n (%). For the same compound, the “AE Abdominal pain” value (RE104 38 mg, n = 6) was 0 n (%), the “AE Agitation” value (RE104 38 mg, n = 6) was 2 (33.3) n (%) and the “AE Diarrhea” value (RE104 38 mg, n = 6) was 2 (33.3) n (%). For the same compound, the “AE Distress” value (RE104 38 mg, n = 6) was 1 (16.7) n (%), the “AE Fatigue” value (RE104 38 mg, n = 6) was 0 n (%) and the “AE Feeling hot” value (RE104 38 mg, n = 6) was 0 n (%). For the same compound, the “AE Headache” value (RE104 38 mg, n = 6) was 4 (66.7) n (%), the “AE Heart rate increased” value (RE104 38 mg, n = 6) was 0 n (%) and the “AE Hyperhidrosis” value (RE104 38 mg, n = 6) was 1 (16.7) n (%). The “AE Muscle twitching” value (RE104 38 mg, n = 6) was 0 n (%), the “AE Musculoskeletal injury” value (RE104 38 mg, n = 6) was 0 n (%) and the “AE Nausea” value (RE104 38 mg, n = 6) was 2 (33.3) n (%). For the same compound, the “AE Restlessness” value (RE104 38 mg, n = 6) was 3 (50.0) n (%), the “AE Sinus tachycardia” value (RE104 38 mg, n = 6) was 3 (50.0) n (%) and the “AE Thirst” value (RE104 38 mg, n = 6) was 2 (33.3) n (%). For the same compound, the “AE Tremor” value (RE104 38 mg, n = 6) was 0 n (%), the “AE Vomiting” value (RE104 38 mg, n = 6) was 0 n (%) and the “AEs leading to” value (RE104 38 mg, n = 6) was 0 n (%). The “Any AE” value (RE104 38 mg, n = 6) was 5 (83.3) n (%), the “Any SAE” value (RE104 38 mg, n = 6) was 0 n (%) and the “Severe AEs” value (RE104 38 mg, n = 6) was 1 (16.7) n (%). The “AE Abdominal pain” value (RE104 44 mg, n = 3) was 0 n (%), the “AE Agitation” value (RE104 44 mg, n = 3) was 2 n (%) and the “AE Diarrhea” value (RE104 44 mg, n = 3) was 0 n (%). The “AE Distress” value (RE104 44 mg, n = 3) was 1 n (%), the “AE Fatigue” value (RE104 44 mg, n = 3) was 0 n (%) and the “AE Feeling hot” value (RE104 44 mg, n = 3) was 0 n (%). For the same compound, the “AE Headache” value (RE104 44 mg, n = 3) was 0 n (%), the “AE Heart rate increased” value (RE104 44 mg, n = 3) was 0 n (%) and the “AE Hyperhidrosis” value (RE104 44 mg, n = 3) was 1 n (%). The “AE Muscle twitching” value (RE104 44 mg, n = 3) was 0 n (%), the “AE Musculoskeletal injury” value (RE104 44 mg, n = 3) was 0 n (%) and the “AE Nausea” value (RE104 44 mg, n = 3) was 2 n (%). For the same compound, the “AE Restlessness” value (RE104 44 mg, n = 3) was 1 n (%), the “AE Sinus tachycardia” value (RE104 44 mg, n = 3) was 2 n (%) and the “AE Thirst” value (RE104 44 mg, n = 3) was 0 n (%). The “AE Tremor” value (RE104 44 mg, n = 3) was 1 n (%), the “AE Vomiting” value (RE104 44 mg, n = 3) was 1 n (%) and the “AEs leading to” value (RE104 44 mg, n = 3) was 0 n (%). For the same compound, the “Any AE” value (RE104 44 mg, n = 3) was 3 n (%), the “Any SAE” value (RE104 44 mg, n = 3) was 0 n (%) and the “Severe AEs” value (RE104 44 mg, n = 3) was 1 n (%). The “sinus tachycardia, maximum recorded value” (asymptomatic) was 115 beats per minute.
